Entries after “also recorded” stand apart in the source; their conditions may differ.
Assays:
Assay type in all cases: in vivo
[1] = tested on: Macaca fascicularis in acute hypobaric hypoxia; test: Neurological score, acute hypobaric hypoxia model (simulated 7,500 m); settings: for neurological function / neurological score (in words): acute hypobaric hypoxia, simulated 7,500 meters, vs solvent control
Source text: (§1) 17 healthy male Macaca fascicularis, 6 to 6.5 years-old, weighted 6.8-7.5 kg, were used. The use of laboratory animals is approved by Committee of laboratory animal management and use and experimental animal ethics committee. The experiment scheme complies with rules concerning animal protection, animal welfare and ethical principles. The 17 Macaca fascicularis were grouped randomly into 3 groups (Table 1).
(§2) The low pressure chamber group is a platform used to simulate low temperature and low pressure plateau environment. The system can be manipulated to simulate a low pressure environment having any altitude below 10000 meters and any temperature above −30° C. The ascending velocity: 3 m/second (0 to 6000 m); descending velocity: 2 m/second (6000 m to 7500 m); constant temperature: 22° C.; average air flow velocity: 150 m^3/h.
(§3) (1) An altitude of 7,500 meters was simulated by manipulation of the low-pressure chamber to cause acute hypoxia in Macaca fascicularis.
(§4) The Macaca fascicularis raised in the laboratory animal housing were labeled and transferred to the low-pressure chamber. The Macaca fascicularis was fed for 1 more day in the chamber in order to make them adapt to the experimental environment. The pressure in the low-pressure chamber was adjusted to simulate altitudes of 3,000, 4,500, and 6,000 meters, staying at each altitude for 30 minutes, followed by simulation of an altitude of […] for 24 hours. The animals were then treated with drugs individually at pre-determined doses. After treatment at 7,500 meters for 48 hours, the altitude was decreased to 6,000 meters at a velocity of 3 m/s. The animals were subject to ketamine anesthesia, sacrificed, dissected and subject to sampling. The samples were fixed. Animals grouped in plain controls were raised in an animal housing at an altitude of 350 m before assessment and sacrifice.
(§5) (2) The animals in 5α-androstane-3β,5,6β-triol treatment group were administered through intravenous injection 10 mL of 5α-androstane-3β,5,6β-triol solution in glucose saline at a dosage of 10 mg/kg before simulation, after 30 min at 3,000 meters, and after 30 min at 4,500 meters, respectively. The animals in solvent control group were given 10 mL of glucose saline through intravenous injection.
(3) The animals in 5α-androstane-3β,5,6β-triol treatment group were administered by skeletal muscle injection at 5 different points with 5α-androstane-3β,5,6β-triol sustained-release formulation at a dosage of 30 mg/kg after 30 min at 6,000 meters. Acute plateau hypoxia models were administered 10 mL of glucose saline through intravenous injection. […]
Animals were stayed at simulated altitude of 7,500 meters for 24 hours before descending to 6,000 meters at a speed of 3 m/s. The neurological scores were evaluated and recorded according to a reported method (Zhu et al, An improved method of neurological score for non-human primates, Chinese Journal of Comparative Medicine, 2011, 21 (9): 58-62). The neurological score was evaluated and recorded by two trained observers who were neither aware of the grouping nor involved in the drug administering. […]
The results were indicated as mean±standard deviation, and statistically analyzed by software SigmaPlot. […]

[2] = tested on: Macaca fascicularis in acute hypobaric hypoxia; test: Cerebral water content of left hemisphere, acute hypobaric hypoxia model; settings: for Cerebral Water Content (%): left hemisphere, 48 hours at simulated 7,500 meters, 10 mg/kg i.v. and 30 mg/kg i.m., repeated after 24 hours; for increase of cerebral water content (in words): acute hypobaric hypoxia, simulated 7,500 meters, vs solvent control
Source text: as §1, §2, §3, §4, §5
(§6) (3) The animals in 5α-androstane-3β,5,6β-triol treatment group were administered by skeletal muscle injection at 5 different points with 5α-androstane-3β,5,6β-triol sustained-release formulation at a dosage of 30 mg/kg after 30 min at 6,000 meters. Acute plateau hypoxia models were administered 10 mL of glucose saline through intravenous injection.
(4) The animals in 5α-androstane-3β,5,6β-triol treatment group were administered through intravenous injection 10 mL of 5α-androstane-3β,5,6β-triol injection in glucose saline at a dosage of 10 mg/kg after 24 hours at 7,500 meters, and further by skeletal muscle injection at 5 different points with 5α-androstane-3β,5,6β-triol sustained-release formulation at a dosage of 30 mg/kg. […]
Cerebral water content was measured according to a reported method (Patir H, Sarada S K, Singh S, Mathew T, Singh B, Bansal A. Quercetin as a prophylactic measure against high altitude cerebral edema. Free Radic Biol Med 2012 Aug. 15; 53(4):659-68). […] Brains of the animals were rapidly taken out and the wet weights of the left hemispheres were measured. The left hemispheres were then placed in a drying oven at 60° C., and were measured their weights daily at a fixed time until no weight change was observed. […]

[3] = tested on: Macaca fascicularis in acute hypobaric hypoxia; test: Transmission electron microscopy of the cortical tissue of the frontal lobe (vasogenic edema); settings: frontal lobe cortex, transmission electron microscope, vs solvent control
Source text: as §1, §2, §3, §4, §5, §6
(4) The animals in 5α-androstane-3β,5,6β-triol treatment group were administered through intravenous injection 10 mL of 5α-androstane-3β,5,6β-triol injection in glucose saline at a dosage of 10 mg/kg after 24 hours at 7,500 meters, and further by skeletal muscle injection at 5 different points with 5α-androstane-3β,5,6β-triol sustained-release formulation at a dosage of 30 mg/kg. Acute plateau hypoxia models were administered 10 mL of glucose saline through intravenous injection.
The cortical tissues of the frontal lobes of the animals were taken out and cut to provide brain pieces of 1 mm^3, which were fixed in a stationary liquid of 2.5% glutaraldehyde to prepare ultrathin sections. The morphology of neurons and the structure of blood vessels were observed by transmission electron microscopy.

[4] = tested on: Macaca fascicularis in acute hypobaric hypoxia; test: HE staining of the cortical tissue of the frontal lobe (neuronal vacuolar degeneration); settings: frontal lobe cortex, vs solvent control
Source text: as §1, §2, §3
The Macaca fascicularis raised in the laboratory animal housing were labeled and transferred to the low-pressure chamber. The Macaca fascicularis was fed for 1 more day in the chamber in order to make them adapt to the experimental environment. […] The animals were then treated with drugs individually at pre-determined doses. […]

Row | Structure (SMILES) | neurological score ([1]; 24 hours at simulated 7,500 meters, 10 mg/kg i.v. x3 and 30 mg/kg i.m. sustained-release, solvent control 31.6±4.2, mean±SD) | neurological function / neurological score (in words) [1] | Cerebral Water Content (%) ([2]; plain control 76.155, solvent control 76.714) | Cerebral Water Content (%) ([2]; plain control 76.155, solvent control 76.714, listed as 5α-androstane-3β3,5,6β-triol) | vasogenic edema / Virchow-Robin space of cortical capillary vessels (in words) [3] | neuronal vacuolar degeneration (in words) [4] | increase of cerebral water content (in words) [2]
1 | C[C@@]12CCC[C@H]1[C@@H]1C[C@@H](O)[C@@]3(O)C[C@@H](O)CC[C@]3(C)[C@H]1CC2 [5α-androstane-3β,5,6β-triol] | 20.5±5.7 | significantly improved | 76.283 ± 0.235 % | 76.283% | reduced; also recorded: no significant vasogenic edema occurred | reduced neuronal vacuolar degeneration | –
2 | CC(C)CCC[C@@H](C)[C@H]1CC[C@H]2[C@@H]3C[C@@H](O)[C@@]4(O)C[C@@H](O)CC[C@]4(C)[C@H]3CC[C@]12C [Compound I, cholestane-3β,5α,6β-triol] | – | – | – | – | effectively reduce | effectively reduce | –
3 | CCC=C1CC[C@H]2[C@@H]3C[C@@H](O)[C@@]4(O)C[C@@H](O)CC[C@]4(C)[C@H]3CC[C@]12C [Compound II, 17-propylidene-androstane-3β,5α,6β-triol] | – | effectively protected | – | – | no significant angioedema | – | inhibited increase of the cerebral water content
4 | CC(C)C1CC[C@H]2[C@@H]3C[C@@H](O)[C@@]4(O)C[C@@H](O)CC[C@]4(C)[C@H]3CC[C@]12C (stereo partly drawn) [Compound III, 17-isopropyl-androstane-3β,5α,6β-triol] | – | effectively protected | – | – | no significant angioedema | – | inhibited increase of the cerebral water content
5 | CCCCC1CC[C@H]2[C@@H]3C[C@@H](O)[C@@]4(O)C[C@@H](O)CC[C@]4(C)[C@H]3CC[C@]12C (stereo partly drawn) [Compound IV, 17-butyl-androstane-3β,5α,6β-triol] | – | effectively protected | – | – | no significant angioedema | – | inhibited increase of the cerebral water content

Source: US10357500B2, “Neuro-protective agents and uses thereof” (Guangzhou Cellprotek Pharmaceutical Co., Ltd., priority 2014, dated 2019)
